In PubChem BioAssay (NCI) one finds GI50 and TGI data, which are given here for eight compounds.

Test systems include 786-0 renal; EKVX NSCLC; DU-145 prostate; TK-10 renal; A498 renal; UACC-62 melanoma; BT-549 breast; NCI/ADR-RES ovarian; OVCAR-4 ovarian; K-562 leukemia.
Holding throughout (test): DTP human tumour cell line panel, 48 h

Values joined by “and” are separate entries in the source; they are usually repeats but may differ in a detail not shown here. Equal values may be shown once.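 Values below derive from 48-hour exposures of cells grown in 96-well plates, with endpoints linearly interpolated between the two concentrations bracketing the appropriate inhibition level. Here, GI50 denotes the concentration required for 50% inhibition of growth. TGI is the concentration that stops growth completely.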

As for `Cn1cc(-c2csc(-c3cn(C)c4ccccc34)n2)c2cnccc21`, the GI50 was 1.95 µM in the test on 786-0 renal; 1.56 µM in the test with EKVX NSCLC; 2.13 µM in the test with DU-145 prostate; 2.25 µM in the test on TK-10 renal; 2.06 µM with A498 renal; 1.72 µM in the test on UACC-62 melanoma. The GI50 in the test on BT-549 breast is 1.68 µM; in the test on NCI/ADR-RES ovarian, 1.83 µM; in the test on OVCAR-4 ovarian it was 1.46 µM. For the same compound, the TGI in the test with 786-0 renal was 3.53 µM; with EKVX NSCLC it was 3.39 µM; with DU-145 prostate, 4.41 µM; in the test with TK-10 renal it was 4.18 µM; in the test with A498 renal, 3.88 µM; with UACC-62 melanoma, 3.25 µM. Further, the results for the TGI in the test on BT-549 breast, with NCI/ADR-RES ovarian and in the test on OVCAR-4 ovarian were 3.09 µM, 4.32 µM and 11.1 µM, respectively.

For the compound `CC1(C)CC[C@H](C2=CC(=O)c3c(O)ccc(O)c3C2=O)O1`, the GI50 in the test with 786-0 renal was 0.829 µM and 1.28 µM and 0.237 µM; in the test with EKVX NSCLC, 4.7 µM and 1.48 µM and 1.35 µM; in the test with TK-10 renal, 1.5 µM and 1.72 µM and 0.604 µM; in the test with A498 renal it was 6.81 µM and 2.57 µM and 1.71 µM; with UACC-62 melanoma it was 2.36 µM and 1.3 µM and 0.54 µM; in the test with BT-549 breast, 0.963 µM and 0.358 µM. The GI50 with OVCAR-4 ovarian was 1.86 µM and 0.311 µM and 0.192 µM. The TGI was 2.07 µM and 2.8 µM and 0.504 µM with 786-0 renal; 11.8 µM and 3.03 µM and 3.95 µM in the test on EKVX NSCLC; 6.28 µM and 4.38 µM in the test on DU-145 prostate; 3.98 µM and 3.1 µM and 1.66 µM in the test on TK-10 renal; 13.6 µM and 6.05 µM and 3.58 µM with A498 renal; 5.28 µM and 2.66 µM and 1.53 µM in the test with UACC-62 melanoma. Also, the concentration for total growth inhibition (TGI) was 2.19 µM and 1.13 µM in the test with BT-549 breast; 12 µM in the test on NCI/ADR-RES ovarian; 4.3 µM and 1.63 µM and 0.505 µM with OVCAR-4 ovarian.

Take `Cn1c2ccccc2c2c(=O)c3ccccc3[nH]c21`: the GI50 with 786-0 renal was 33.7 µM; in the test on K-562 leukemia, greater than 100 µM; in the test with EKVX NSCLC, 44.1 µM; in the test on DU-145 prostate it was 33.2 µM; in the test on TK-10 renal, 42.4 µM; in the test on A498 renal, 18 µM. Moreover, the GI50 with UACC-62 melanoma is 69.7 µM; in the test on BT-549 breast it was 73.3 µM; in the test with NCI/ADR-RES ovarian it was 43.7 µM. Moreover, the TGI in the test on 786-0 renal was greater than 100 µM; in the test on K-562 leukemia, greater than 100 µM; in the test on EKVX NSCLC it was greater than 100 µM; with DU-145 prostate, greater than 100 µM; in the test on TK-10 renal, greater than 100 µM; with A498 renal it was 64.8 µM. Moreover, the TGI in the test on UACC-62 melanoma, with BT-549 breast and in the test on NCI/ADR-RES ovarian was greater than 100 µM throughout.

As for `CNC(=O)c1cc2c(Oc3ccc(NC(=O)C4(C(=O)Nc5ccc(F)cc5)CC4)cc3)ccnc2cc1OC`, the GI50 in the test on 786-0 renal is 3.46 µM; in the test on K-562 leukemia, 0.37 µM; with EKVX NSCLC, 3.39 µM; in the test with DU-145 prostate, 4.06 µM; in the test with A498 renal, 1.28 µM; in the test with UACC-62 melanoma, 1.54 µM. The GI50 was 3.01 µM in the test on BT-549 breast, 3.56 µM in the test with NCI/ADR-RES ovarian and 3.55 µM in the test on OVCAR-4 ovarian. The TGI was greater than 100 µM in the test on 786-0 renal; 3.4 µM in the test with K-562 leukemia; greater than 100 µM in the test with EKVX NSCLC; greater than 100 µM with DU-145 prostate; 3.27 µM in the test on A498 renal; 15 µM with UACC-62 melanoma. Besides, the TGI is 9.6 µM in the test on BT-549 breast, greater than 100 µM in the test with NCI/ADR-RES ovarian and greater than 100 µM in the test on OVCAR-4 ovarian.

As to `O=C(O)CCC(NC(=S)S)C(=O)O.[Na+].[Zn+2]` (stereo not given), the GI50 in the test with 786-0 renal, in the test with K-562 leukemia, in the test on DU-145 prostate, in the test with TK-10 renal, with A498 renal and in the test on UACC-62 melanoma was greater than 50 µM each time. In addition, the GI50 in the test with BT-549 breast, in the test with NCI/ADR-RES ovarian and with OVCAR-4 ovarian was greater than 50 µM each time. Besides, the TGI with 786-0 renal, in the test with K-562 leukemia, with DU-145 prostate, with TK-10 renal, in the test with A498 renal and with UACC-62 melanoma was greater than 50 µM each time. The TGI in the test with BT-549 breast, with NCI/ADR-RES ovarian and in the test with OVCAR-4 ovarian was greater than 50 µM each time.

`Cn1c([N+](=O)[O-])cnc1/C=C1\Oc2cc(Cl)ccc2C1=O`: the GI50 in the test with 786-0 renal is 1.08 µM; in the test on K-562 leukemia it was 1.36 µM; with DU-145 prostate, 0.413 µM; with TK-10 renal, 1.33 µM; with A498 renal, 1.95 µM; in the test on BT-549 breast, 0.996 µM. Further, the results for the GI50 in the test with NCI/ADR-RES ovarian and in the test on OVCAR-4 ovarian were 0.884 µM and 2.48 µM, respectively. For the same compound, the TGI worked out at 4.75 µM in the test with 786-0 renal; 21 µM with K-562 leukemia; 4.51 µM with DU-145 prostate; 4.81 µM in the test on TK-10 renal; 9.97 µM in the test with A498 renal; 4.9 µM in the test with BT-549 breast. The results for the TGI with NCI/ADR-RES ovarian and with OVCAR-4 ovarian were greater than 100 µM and greater than 21.5 µM, respectively.

For `C[C@H](Cn1ncnn1)Nc1ncc2cc(Oc3ccc(F)cc3F)c(=O)n(C)c2n1`, the GI50 in the test on 786-0 renal, with K-562 leukemia, in the test on DU-145 prostate, with TK-10 renal, in the test on A498 renal and with UACC-62 melanoma was greater than 25 µM throughout. Besides, the GI50 in the test with BT-549 breast, with NCI/ADR-RES ovarian and with OVCAR-4 ovarian was greater than 25 µM throughout. For the same compound, the TGI in the test with 786-0 renal, in the test with K-562 leukemia, with DU-145 prostate, with TK-10 renal, with A498 renal and in the test with UACC-62 melanoma was greater than 25 µM each time. Further, the TGI in the test on BT-549 breast, in the test on NCI/ADR-RES ovarian and with OVCAR-4 ovarian was greater than 25 µM each time.

As to `CN(C)Cc1c[nH]c2c(NCCN)c3c(c(NCCN)c12)C(=O)c1ccccc1C3=O`, the GI50 is 0.71 µM in the test with 786-0 renal; 0.516 µM in the test with K-562 leukemia; 2.9 µM in the test on EKVX NSCLC; 5.55 µM in the test on DU-145 prostate; 3.25 µM in the test on TK-10 renal; 1.44 µM in the test on UACC-62 melanoma. Also, the figures for the GI50 in the test on BT-549 breast, in the test on NCI/ADR-RES ovarian and in the test with OVCAR-4 ovarian were 3.52 µM, 21.8 µM and 8.07 µM, respectively. The TGI in the test with 786-0 renal was 7.8 µM; in the test with K-562 leukemia, greater than 100 µM; with EKVX NSCLC it was 9.36 µM; in the test with DU-145 prostate, 18.7 µM; with TK-10 renal it was 9.49 µM; in the test with UACC-62 melanoma, 4.18 µM. In addition, the TGI with BT-549 breast is 9.87 µM; in the test on NCI/ADR-RES ovarian, greater than 66.1 µM; in the test with OVCAR-4 ovarian it was 29.6 µM.

The GI50 is the concentration at which growth is held to half of that of the control. What is called TGI is the concentration giving total growth inhibition.
